From the supplement of paper PMC10307832

How the values were obtained:
Test in all cases: relative viability (nuclei count vs DMSO), 5 days (fraction); higher = more cells survive
AZ505 + Palbociclib = compound: C1CCC(CC1)N(CCNCCC2=C3C(=C(C=C2)O)NC(=O)CO3)C(=O)CCNCCC4=CC(=C(C=C4)Cl)Cl [AZ505] + CC(=O)c1c(C)c2cnc(Nc3ccc(N4CCNCC4)cn3)nc2n(C2CCCC2)c1=O [Palbociclib] (partner 0.5 µM)
Method in brief: (§1)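 The day after seeding in 1536-well plates, lung cancer cell lines were treated by pin tool with a single drug, or with a fixed anchor-drug dose together with five library-drug doses (not always all listed) in √10 steps. After 5 days, a combined fix-and-stain solution (final 0.05% Triton X-100, 1% formaldehyde, 1 ug/ml Hoechst) was added. Nuclei counted on 4× images gave relative viability as treated counts over vehicle counts, reported as the median of duplicate plates.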

AZ505 + Alpelisib = compound: C1CCC(CC1)N(CCNCCC2=C3C(=C(C=C2)O)NC(=O)CO3)C(=O)CCNCCC4=CC(=C(C=C4)Cl)Cl [AZ505] + Cc1nc(NC(=O)N2CCC[C@H]2C(N)=O)sc1-c1ccnc(C(C)(C)C(F)(F)F)c1 [Alpelisib] (partner 2 µM)
Method in brief: as §1

Dactolisib + Pictilisib = compound: Cn1c(=O)n(-c2ccc(C(C)(C)C#N)cc2)c2c3cc(-c4cnc5ccccc5c4)ccc3ncc21 [Dactolisib] + CS(=O)(=O)N1CCN(Cc2cc3nc(-c4cccc5[nH]ncc45)nc(N4CCOCC4)c3s2)CC1 [Pictilisib] (partner 1 µM)
Method in brief: as §1

Dactolisib + Pemetrexed = compound: Cn1c(=O)n(-c2ccc(C(C)(C)C#N)cc2)c2c3cc(-c4cnc5ccccc5c4)ccc3ncc21 [Dactolisib] + Nc1nc2[nH]cc(CCc3ccc(C(=O)N[C@@H](CCC(=O)O)C(=O)O)cc3)c2c(=O)[nH]1 [Pemetrexed] (partner 0.2 µM)
Method in brief: as §1

EKVX
relative viability (AZ505 + Palbociclib; first compound 0.253 µM): 0.365
relative viability (AZ505 + Palbociclib; first compound 0.8 µM): 0.378
relative viability (AZ505 + Palbociclib; first compound 2.53 µM): 0.372
relative viability (AZ505 + Palbociclib; first compound 8 µM): 0.389
relative viability (AZ505 + Alpelisib; first compound 0.08 µM): 0.896
relative viability (AZ505 + Alpelisib; first compound 0.253 µM): 1.04
relative viability (AZ505 + Alpelisib; first compound 0.8 µM): 0.896
relative viability (AZ505 + Alpelisib; first compound 2.53 µM): 0.899
relative viability (AZ505 + Alpelisib; first compound 8 µM): 1.01
relative viability (Dactolisib + Pictilisib; first compound 0.002 µM): 0.402
relative viability (Dactolisib + Pictilisib; first compound 0.006325 µM): 0.433
relative viability (Dactolisib + Pictilisib; first compound 0.02 µM): 0.37
relative viability (Dactolisib + Pictilisib; first compound 0.06325 µM): 0.293
relative viability (Dactolisib + Pictilisib; first compound 0.2 µM): 0.241
relative viability (Dactolisib + Pemetrexed; first compound 0.002 µM): 0.248
relative viability (Dactolisib + Pemetrexed; first compound 0.006325 µM): 0.357
relative viability (Dactolisib + Pemetrexed; first compound 0.02 µM): 0.387
relative viability (Dactolisib + Pemetrexed; first compound 0.06325 µM): 0.356
relative viability (Dactolisib + Pemetrexed; first compound 0.2 µM): 0.294

LXF-289
relative viability (AZ505 + Palbociclib; first compound 0.08 µM): 0.552
relative viability (AZ505 + Palbociclib; first compound 0.253 µM): 0.608
relative viability (AZ505 + Palbociclib; first compound 0.8 µM): 0.568
relative viability (AZ505 + Palbociclib; first compound 2.53 µM): 0.594
relative viability (AZ505 + Palbociclib; first compound 8 µM): 0.588
relative viability (AZ505 + Alpelisib; first compound 0.08 µM): 0.983
relative viability (AZ505 + Alpelisib; first compound 0.8 µM): 1.02
relative viability (AZ505 + Alpelisib; first compound 2.53 µM): 1.06
relative viability (AZ505 + Alpelisib; first compound 8 µM): 1.01
relative viability (Dactolisib + Pictilisib; first compound 0.002 µM): 0.9
relative viability (Dactolisib + Pictilisib; first compound 0.006325 µM): 0.851
relative viability (Dactolisib + Pictilisib; first compound 0.02 µM): 0.749
relative viability (Dactolisib + Pictilisib; first compound 0.06325 µM): 0.673
relative viability (Dactolisib + Pictilisib; first compound 0.2 µM): 0.613
relative viability (Dactolisib + Pemetrexed; first compound 0.002 µM): 0.921
relative viability (Dactolisib + Pemetrexed; first compound 0.006325 µM): 0.886
relative viability (Dactolisib + Pemetrexed; first compound 0.02 µM): 0.964
relative viability (Dactolisib + Pemetrexed; first compound 0.06325 µM): 1.02
relative viability (Dactolisib + Pemetrexed; first compound 0.2 µM): 0.619

NCI-H650
relative viability (AZ505 + Palbociclib; first compound 0.08 µM): 0.279
relative viability (AZ505 + Palbociclib; first compound 0.253 µM): 0.377
relative viability (AZ505 + Palbociclib; first compound 0.8 µM): 0.322
relative viability (AZ505 + Palbociclib; first compound 2.53 µM): 0.395
relative viability (AZ505 + Palbociclib; first compound 8 µM): 0.309
relative viability (AZ505 + Alpelisib; first compound 0.08 µM): 1.03
relative viability (AZ505 + Alpelisib; first compound 0.253 µM): 1.31
relative viability (AZ505 + Alpelisib; first compound 0.8 µM): 1.03
relative viability (AZ505 + Alpelisib; first compound 2.53 µM): 1.14
relative viability (AZ505 + Alpelisib; first compound 8 µM): 1.21
relative viability (Dactolisib + Pictilisib; first compound 0.002 µM): 0.86
relative viability (Dactolisib + Pictilisib; first compound 0.006325 µM): 0.771
relative viability (Dactolisib + Pictilisib; first compound 0.02 µM): 0.704
relative viability (Dactolisib + Pictilisib; first compound 0.06325 µM): 0.558
relative viability (Dactolisib + Pictilisib; first compound 0.2 µM): 0.451
relative viability (Dactolisib + Pemetrexed; first compound 0.002 µM): 1
relative viability (Dactolisib + Pemetrexed; first compound 0.006325 µM): 0.815
relative viability (Dactolisib + Pemetrexed; first compound 0.02 µM): 0.897
relative viability (Dactolisib + Pemetrexed; first compound 0.06325 µM): 0.723
relative viability (Dactolisib + Pemetrexed; first compound 0.2 µM): 0.47

NCI-H2085
relative viability (AZ505 + Palbociclib; first compound 0.08 µM): 0.451
relative viability (AZ505 + Palbociclib; first compound 0.253 µM): 0.469
relative viability (AZ505 + Palbociclib; first compound 0.8 µM): 0.459
relative viability (AZ505 + Palbociclib; first compound 2.53 µM): 0.477
relative viability (AZ505 + Palbociclib; first compound 8 µM): 0.446
relative viability (AZ505 + Alpelisib; first compound 0.08 µM): 0.825
relative viability (AZ505 + Alpelisib; first compound 0.253 µM): 0.905
relative viability (AZ505 + Alpelisib; first compound 0.8 µM): 0.884
relative viability (AZ505 + Alpelisib; first compound 2.53 µM): 1.01
relative viability (AZ505 + Alpelisib; first compound 8 µM): 1.01
relative viability (Dactolisib + Pictilisib; first compound 0.002 µM): 0.372
relative viability (Dactolisib + Pictilisib; first compound 0.006325 µM): 0.472
relative viability (Dactolisib + Pictilisib; first compound 0.02 µM): 0.352
relative viability (Dactolisib + Pictilisib; first compound 0.06325 µM): 0.332
relative viability (Dactolisib + Pictilisib; first compound 0.2 µM): 0.396
relative viability (Dactolisib + Pemetrexed; first compound 0.002 µM): 0.905
relative viability (Dactolisib + Pemetrexed; first compound 0.006325 µM): 0.884
relative viability (Dactolisib + Pemetrexed; first compound 0.02 µM): 0.811
relative viability (Dactolisib + Pemetrexed; first compound 0.06325 µM): 0.345
relative viability (Dactolisib + Pemetrexed; first compound 0.2 µM): 0.273

NCI-H1793
relative viability (AZ505 + Palbociclib; first compound 0.08 µM): 0.293
relative viability (AZ505 + Palbociclib; first compound 0.253 µM): 0.271
relative viability (AZ505 + Palbociclib; first compound 0.8 µM): 0.3
relative viability (AZ505 + Palbociclib; first compound 2.53 µM): 0.307
relative viability (AZ505 + Palbociclib; first compound 8 µM): 0.347
relative viability (AZ505 + Alpelisib; first compound 0.08 µM): 0.734
relative viability (AZ505 + Alpelisib; first compound 0.253 µM): 0.804
relative viability (AZ505 + Alpelisib; first compound 0.8 µM): 0.827
relative viability (AZ505 + Alpelisib; first compound 2.53 µM): 0.844
relative viability (AZ505 + Alpelisib; first compound 8 µM): 0.881
relative viability (Dactolisib + Pictilisib; first compound 0.002 µM): 0.311
relative viability (Dactolisib + Pictilisib; first compound 0.006325 µM): 0.315
relative viability (Dactolisib + Pictilisib; first compound 0.02 µM): 0.175
relative viability (Dactolisib + Pictilisib; first compound 0.06325 µM): 0.211
relative viability (Dactolisib + Pictilisib; first compound 0.2 µM): 0.203
relative viability (Dactolisib + Pemetrexed; first compound 0.002 µM): 0.751
relative viability (Dactolisib + Pemetrexed; first compound 0.006325 µM): 0.409
relative viability (Dactolisib + Pemetrexed; first compound 0.02 µM): 0.266
relative viability (Dactolisib + Pemetrexed; first compound 0.06325 µM): 0.214
relative viability (Dactolisib + Pemetrexed; first compound 0.2 µM): 0.168

LC-2-ad
relative viability (AZ505 + Palbociclib; first compound 0.08 µM): 0.458
relative viability (AZ505 + Palbociclib; first compound 0.253 µM): 0.479
relative viability (AZ505 + Palbociclib; first compound 0.8 µM): 0.45
relative viability (AZ505 + Palbociclib; first compound 2.53 µM): 0.499
relative viability (AZ505 + Palbociclib; first compound 8 µM): 0.511
relative viability (AZ505 + Alpelisib; first compound 0.08 µM): 0.774
relative viability (AZ505 + Alpelisib; first compound 0.253 µM): 0.797
relative viability (AZ505 + Alpelisib; first compound 0.8 µM): 0.832
relative viability (AZ505 + Alpelisib; first compound 2.53 µM): 0.957
relative viability (AZ505 + Alpelisib; first compound 8 µM): 0.877
relative viability (Dactolisib + Pictilisib; first compound 0.002 µM): 0.291
relative viability (Dactolisib + Pictilisib; first compound 0.02 µM): 0.428
relative viability (Dactolisib + Pictilisib; first compound 0.06325 µM): 0.389
relative viability (Dactolisib + Pictilisib; first compound 0.2 µM): 0.262
relative viability (Dactolisib + Pemetrexed; first compound 0.002 µM): 0.263
relative viability (Dactolisib + Pemetrexed; first compound 0.006325 µM): 0.302
relative viability (Dactolisib + Pemetrexed; first compound 0.02 µM): 0.276
relative viability (Dactolisib + Pemetrexed; first compound 0.06325 µM): 0.264
relative viability (Dactolisib + Pemetrexed; first compound 0.2 µM): 0.272

COR-L 105
relative viability (AZ505 + Palbociclib; first compound 0.08 µM): 0.399
relative viability (AZ505 + Palbociclib; first compound 0.253 µM): 0.405
relative viability (AZ505 + Palbociclib; first compound 0.8 µM): 0.369
relative viability (AZ505 + Palbociclib; first compound 2.53 µM): 0.406
relative viability (AZ505 + Palbociclib; first compound 8 µM): 0.399
relative viability (AZ505 + Alpelisib; first compound 0.08 µM): 0.897
relative viability (AZ505 + Alpelisib; first compound 0.253 µM): 1.06
relative viability (AZ505 + Alpelisib; first compound 0.8 µM): 1.02
relative viability (AZ505 + Alpelisib; first compound 2.53 µM): 0.954
relative viability (AZ505 + Alpelisib; first compound 8 µM): 0.954
relative viability (Dactolisib + Pictilisib; first compound 0.002 µM): 0.423
relative viability (Dactolisib + Pictilisib; first compound 0.006325 µM): 0.364
relative viability (Dactolisib + Pictilisib; first compound 0.02 µM): 0.377
relative viability (Dactolisib + Pictilisib; first compound 0.06325 µM): 0.332
relative viability (Dactolisib + Pictilisib; first compound 0.2 µM): 0.305
relative viability (Dactolisib + Pemetrexed; first compound 0.002 µM): 1.22
relative viability (Dactolisib + Pemetrexed; first compound 0.006325 µM): 1.25
relative viability (Dactolisib + Pemetrexed; first compound 0.02 µM): 0.891
relative viability (Dactolisib + Pemetrexed; first compound 0.06325 µM): 0.892
relative viability (Dactolisib + Pemetrexed; first compound 0.2 µM): 0.356

NCI-H1355
relative viability (AZ505 + Palbociclib; first compound 0.08 µM): 0.369
relative viability (AZ505 + Palbociclib; first compound 0.253 µM): 0.398
relative viability (AZ505 + Palbociclib; first compound 0.8 µM): 0.396
relative viability (AZ505 + Palbociclib; first compound 2.53 µM): 0.367
relative viability (AZ505 + Palbociclib; first compound 8 µM): 0.374
relative viability (AZ505 + Alpelisib; first compound 0.08 µM): 0.775
relative viability (AZ505 + Alpelisib; first compound 0.253 µM): 0.769
relative viability (AZ505 + Alpelisib; first compound 0.8 µM): 0.834
relative viability (AZ505 + Alpelisib; first compound 2.53 µM): 0.65
relative viability (AZ505 + Alpelisib; first compound 8 µM): 0.902
relative viability (Dactolisib + Pictilisib; first compound 0.002 µM): 0.505
relative viability (Dactolisib + Pictilisib; first compound 0.006325 µM): 0.401
relative viability (Dactolisib + Pictilisib; first compound 0.02 µM): 0.43
relative viability (Dactolisib + Pictilisib; first compound 0.06325 µM): 0.32
relative viability (Dactolisib + Pictilisib; first compound 0.2 µM): 0.241
relative viability (Dactolisib + Pemetrexed; first compound 0.002 µM): 1.08
relative viability (Dactolisib + Pemetrexed; first compound 0.006325 µM): 1.03
relative viability (Dactolisib + Pemetrexed; first compound 0.02 µM): 1.02
relative viability (Dactolisib + Pemetrexed; first compound 0.06325 µM): 0.861
relative viability (Dactolisib + Pemetrexed; first compound 0.2 µM): 0.65
